“And” between values parts separate entries of the source, which are not always exact repeats. Equal entries are not always repeated.
How the values were obtained:
ABL1 = molecular target: T1, ABL1 (Homo sapiens, UniProt P00519); assay: Luminescence-based ABL kinase assay (300 μM ATP), ADP-Glo; assay type: biochemical
T1 construct: purchased Carna Biosciences
Text: Compounds were serially diluted in DMSO. […] Luminescence signal positively correlates with kinase activity.

ABL1 (T315I) = ABL1 (T315I) (Homo sapiens, UniProt P00519, T315I); assay: as above; assay type: biochemical

Structure (SMILES) | IC50 (ABL1) | IC50 (ABL1 (T315I))
COc1ccccc1-c1cc2cc(NC(=O)[C@H]3C[C@H]3CN3CCN(C)CC3)ncc2n1C (relative stereo) [Compound 40, cis-N-(2-(2-methoxyphenyl)-1-methyl-1H-pyrrolo[2,3-c]pyridin-5-yl)-2-((4-methylpiperazin-1-yl)methyl)cyclopropane-1-carboxamide] | 113 nM | 145 nM
COc1ccccc1-c1cc2cc(NC(=O)[C@H]3C[C@H]3CN3CCOCC3)ncc2n1C (relative stereo) [Compound 41, cis-N-(2-(2-methoxyphenyl)-1-methyl-1H-pyrrolo[2,3-c]pyridin-5-yl)-2-(morpholinomethyl)cyclopropane-1-carboxamide] | 324 nM | 212 nM
COc1ncc(F)c(OC)c1-c1cc2cc(NC(=O)[C@H]3C[C@@H]3CN(C)C)ncc2n1C (single isomer, unassigned) [Compound 131] | 78.3 nM | 78.3 nM
COc1ccnc(OC)c1-c1cc2cc(NC(=O)[C@@H]3C[C@H]3CN3CCNCC3)ncc2n1C (single isomer, unassigned) [Compound 139] | 48.6 nM | 85.9 nM
COc1ccnc(OC)c1-c1cc2cc(NC(=O)[C@H]3C[C@@H]3CN3CC4CC(C3)N4)ncc2n1C (single isomer, unassigned) [Example 135, Enantiomer 1] | 30 nM | 66.7 nM
COc1ccnc(OC)c1-c1cc2cc(NC(=O)[C@@H]3C[C@H]3CN3CC4CC(C3)N4)ncc2n1C (single isomer, unassigned) [Example 135, Enantiomer 2] | 10.6 nM | 26 nM
Cn1c(-c2ccccc2OCCO)cc2cc(NC(=O)C3CC3)ncc21 [Compound 4, N-[2-[2-(2-hydroxyethoxy)phenyl]-1-methylpyrrolo[2,3-c]pyridin-5-yl]cyclopropanecarboxamide] | 817 nM | 599 nM
Cc1c(-c2cc3cc(NC(=O)C4CC4)ncc3n2C)ccc2c1CCN2 [Compound 13, N-[1-methyl-2-(4-methyl-2,3-dihydro-1H-indol-5-yl)pyrrolo[2,3-c]pyridin-5-yl]cyclopropanecarboxamide] | 567 nM | 300 nM
Cc1cc2[nH]ccc2cc1-c1cc2cc(NC(=O)C3CC3)ncc2n1C [Compound 14, N-(1-methyl-2-(6-methyl-1H-indol-5-yl)-1H-pyrrolo[2,3-c]pyridin-5-yl)cyclopropanecarboxamide] | 29.6 nM | 124 nM
Cc1c(-c2cc3cc(NC(=O)C4CC4)ncc3n2C)ccc2[nH]ccc12 [Compound 15, N-[1-methyl-2-(4-methyl-1H-indol-5-yl)pyrrolo[2,3-c]pyridin-5-yl]cyclopropanecarboxamide] | 103 nM | 101 nM
Cc1cc2[nH]ncc2cc1-c1cc2cc(NC(=O)C3CC3)ncc2n1C [Compound 16, N-(1-methyl-2-(6-methyl-1H-indazol-5-yl)-1H-pyrrolo[2,3-c]pyridin-5-yl)cyclopropanecarboxamide] | 184 nM | 545 nM
Cc1cc2[nH]cnc2cc1-c1cc2cc(NC(=O)C3CC3)ncc2n1C [Compound 17, N-[1-methyl-2-(6-methyl-1H-1,3-benzodiazol-5-yl)pyrrolo[2,3-c]pyridin-5-yl]cyclopropanecarboxamide] | 59.7 nM | 160 nM
Cc1c(-c2cc3cc(NC(=O)C4CC4)ncc3n2C)ccc2[nH]ncc12 [Compound 18, N-[1-methyl-2-(4-methyl-1H-indazol-5-yl)pyrrolo[2,3-c]pyridin-5-yl]cyclopropanecarboxamide] | 743 nM | 336 nM
Cc1c(-c2cc3cc(NC(=O)C4CC4)ncc3n2C)ccc2[nH]cnc12 [Compound 19, N-[1-methyl-2-(4-methyl-1H-1,3-benzodiazol-5-yl)pyrrolo[2,3-c]pyridin-5-yl]cyclopropanecarboxamide] | 263 nM | 68.3 nM
Cc1cccnc1-c1cc2cc(NC(=O)C3CC3)ncc2n1C [Compound 20, N-[1-methyl-2-(3-methylpyridin-2-yl)pyrrolo[2,3-c]pyridin-5-yl]cyclopropanecarboxamide] | > 10000 nM | 999 nM
[2H]C([2H])([2H])Oc1ncccc1-c1cc2cc(NC(=O)[C@H]3C[C@H]3F)ncc2n1C [Compound 33, (1R,2R)-2-fluoro-N-(2-(2-(methoxy-d3)pyridin-3-yl)-1-methyl-1H-pyrrolo[2,3-c]pyridin-5-yl)cyclopropane-1-carboxamide] | 59.5 nM | 183 nM
CCOc1ncccc1-c1cc2cc(NC(=O)[C@H]3C[C@H]3F)ncc2n1C [Compound 37, (1R,2R)-N-[2-(2-ethoxypyridin-3-yl)-1-methylpyrrolo[2,3-c]pyridin-5-yl]-2-fluorocyclopropane-1-carboxamide] | 35.4 nM | 551 nM

Structure (SMILES) | IC50 (ABL1) | IC50 (ABL1 (T315I))
COc1cccc(F)c1-c1c(C)c2cc(NC(=O)[C@H]3C[C@H]3F)ncc2n1C [Compound 45, (1R,2R)-2-fluoro-N-[2-(2-fluoro-6-methoxyphenyl)-1,3-dimethylpyrrolo[2,3-c]pyridin-5-yl]cyclopropane-1-carboxamide] | 220 nM | 17.9 nM
COc1ncccc1-c1cc2cnc(NC(=O)C3CC3)cc2n1C [Compound 50, N-[2-(2-methoxypyridin-3-yl)-1-methylpyrrolo[3,2-c]pyridin-6-yl]cyclopropanecarboxamide] | 294 nM | 681 nM
COc1ccccc1-c1cc2cnc(NC(=O)[C@@H]3C[C@@H]3F)cc2n1C [Compound 51, (1S,2S)-2-fluoro-N-[2-(2-methoxyphenyl)-1-methylpyrrolo[3,2-c]pyridin-6-yl]cyclopropane-1-carboxamide] | 88.6 nM | 64.1 nM
COc1cccc(F)c1-c1c(C)c2cnc(NC(=O)[C@H]3C[C@H]3F)cc2n1C [Compound 55, (1R,2R)-2-fluoro-N-[2-(2-fluoro-6-methoxyphenyl)-1,3-dimethylpyrrolo[3,2-c]pyridin-6-yl]cyclopropane-1-carboxamide] | 71.3 nM | 7.24 nM
CCn1c(-c2cccnc2OC)cc2cc(NC(=O)[C@@H]3C[C@@H]3F)ncc21 [Compound 63, (1S,2S)-N-(1-ethyl-2-(2-methoxypyridin-3-yl)-1H-pyrrolo[2,3-c]pyridin-5-yl)-2-fluorocyclopropane-1-carboxamide] | 1430 nM and 1350 nM | 2670 nM and 4510 nM
COc1ncncc1-c1cc2cc(NC(=O)[C@@H]3C[C@@H]3F)ncc2n1C [Compound 68, (1S,2S)-2-fluoro-N-(2-(4-methoxypyrimidin-5-yl)-1-methyl-1H-pyrrolo[2,3-c]pyridin-5-yl)cyclopropane-1-carboxamide] | 109 nM | 431 nM
COc1cc2ncsc2cc1-c1cc2cc(NC(=O)[C@@H]3C[C@@H]3F)ncc2n1C [Compound 69, (1S,2S)-2-fluoro-N-[2-(5-methoxy-1,3-benzothiazol-6-yl)-1-methylpyrrolo[2,3-c]pyridin-5-yl]cyclopropane-1-carboxamide] | 20.4 nM | 62.9 nM
COc1cc2nccn2cc1-c1cc2cc(NC(=O)[C@@H]3C[C@@H]3F)ncc2n1C [Compound 71, (1S,2S)-2-fluoro-N-(2-(7-methoxyimidazo[1,2-a]pyridin-6-yl)-1-methyl-1H-pyrrolo[2,3-c]pyridin-5-yl)cyclopropane-1-carboxamide] | 105 nM | 716 nM
CCNC(=O)Nc1cc2cc(-c3ccccc3OC)n(C)c2cn1 [Compound 77, 3-ethyl-1-[2-(2-methoxyphenyl)-1-methylpyrrolo[2,3-c]pyridin-5-yl]urea] | 95.9 nM | 148 nM
CCNC(=O)Nc1cc2cc(-c3cccnc3OC)n(C)c2cn1 [Compound 78, 3-ethyl-1-[2-(2-methoxypyridin-3-yl)-1-methylpyrrolo[2,3-c]pyridin-5-yl]urea] | 183 nM | 411 nM
CCN1CCN(CCNC(=O)Nc2cc3cc(-c4c(OC)ncc(F)c4OC)n(C)c3cn2)CC1 [Compound 84, 1-[2-(4-ethylpiperazin-1-yl)ethyl]-3-[2-(5-fluoro-2,4-dimethoxypyridin-3-yl)-1-methylpyrrolo[2,3-c]pyridin-5-yl]urea] | 44.5 nM | 164 nM
COc1ncnc(OC)c1-c1[nH]c2cc(NC(=O)[C@@H]3C[C@@H]3F)ncc2c1C [Compound 91, (1S,2S)-N-(2-(4,6-dimethoxypyrimidin-5-yl)-3-methyl-1H-pyrrolo[3,2-c]pyridin-6-yl)-2-fluorocyclopropane-1-carboxamide] | 388 nM | 399 nM
COc1nc(C(F)F)nc(OC)c1-c1cc2cc(NC(=O)[C@@H]3C[C@@H]3F)ncc2n1C [Compound 96, (1S,2S)-N-(2-(2-(difluoromethyl)-4,6-dimethoxypyrimidin-5-yl)-1-methyl-1H-pyrrolo[2,3-c]pyridin-5-yl)-2-fluorocyclopropane-1-carboxamide] | 40.4 nM | 207 nM
COc1nc(OC)c(-c2cc3cc(NC(=O)[C@@H]4C[C@@H]4F)ncc3n2C)c(OC)n1 [Compound 102, (1S,2S)-2-fluoro-N-(1-methyl-2-(2,4,6-trimethoxypyrimidin-5-yl)-1H-pyrrolo[2,3-c]pyridin-5-yl)cyclopropane-1-carboxamide] | 123 nM | 412 nM
CNc1ncnc(OC)c1-c1cc2cc(NC(=O)[C@@H]3C[C@@H]3F)ncc2n1C [Compound 109, (1S,2S)-2-fluoro-N-(2-(4-methoxy-6-(methylamino)pyrimidin-5-yl)-1-methyl-1H-pyrrolo[2,3-c]pyridin-5-yl)cyclopropane-1-carboxamide] | 60.2 nM | 203 nM
COc1ncnc(NC2CC2)c1-c1cc2cc(NC(=O)[C@@H]3C[C@@H]3F)ncc2n1C [Compound 110, (1S,2S)-N-(2-(4-(cyclopropylamino)-6-methoxypyrimidin-5-yl)-1-methyl-1H-pyrrolo[2,3-c]pyridin-5-yl)-2-fluorocyclopropane-1-carboxamide] | 280 nM | 357 nM

Source: patent publication US12240846B2 (Enliven Inc., priority 2020, dated 2025)
